From patent publication EP4755880A1, “SUBSTITUTED NITROGEN-CONTAINING BICYCLIC COMPOUND AND USE THEREOF” (Sunshine Lake Pharma Co., Ltd., priority 2023, dated 2025) come the findings set out here.

For orientation: IC50 means the concentration that inhibits the measured activity by half. Low values mean greater potency in that assay, high ones weaker potency in that assay.

For one assay, the target named is PARP2 (Homo sapiens, UniProt Q9UGN5). In words: biochemical.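 Further: PARP2 enzyme ELISA on histone-coated plates, Strep-HRP detection with chemiluminescence read-out, 10 min compound preincubation with enzyme, inhibition scaled between Max and Min signal controls.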
In a further assay the test system is MDA-MB-436 cells. The assay can be described thus: Inhibition of proliferation of MDA-MB-436 cells (CellTiter-Glo). The following applies: Homo sapiens, MDA-MB-436, 168 h, 7 days incubation. It counts as cell-based. As for the experimental part:
• 1. Cell Pretreatment: MDA-MB-436 cells were cultured in DMEM + 10% FBS + 1% penicillin-dip antibiotics + 1% ITS + 16 µg/ml glutathione. Cells in the logarithmic growth phase were digested with trypsin-EDTA, centrifuged and resuspended, and then seeded at a rate of 500-1000 cells/well in sterile 96-well opaque plates, 90 µl per well. After seeding, the cell culture plates were incubated overnight at 37°C with 5% CO2 before drug treatment. • 2. Drug treatment of MDA-MB-436 cells: The test compound was prepared as a 10 mM stock solution using DMSO. The drug was then diluted to a 10× working solution using growth medium (the compound was started at 100 µM and diluted 4-fold to achieve 9 concentrations). 10 µl of the 10× working solution was added to each well to achieve final drug concentrations of 10000, 2500, 625, 156, 39, 9.7, 2.4, 0.61, and 0.152 nM, respectively. Blank control wells containing the same DMSO concentration were also included, with three replicates for each concentration. After drug addition, the cells were incubated at 37°C with 5% CO2 for 7 days. • 3. After incubation, 100 µl of CellTiter-Glo® Reagent was added to each well, and luminescence was measured. The IC50 value of cell proliferation inhibition was calculated using GraphPad software to fit the curve. Table E: Results of the inhibitory effect of the compound of this invention on the proliferation of MDA-MB-436 cells.

The target in a further assay is PARP1 (Homo sapiens, UniProt P09874). In words: Inhibition of PARP1 enzyme activity (ELISA, chemiluminescence). It counts as biochemical. The following applies: for IC50: ELISA, histone-coated plate, NAD+, 60 min at 25 °C; for Selectivity PARP2/PARP1: ratio of PARP2 IC50 to PARP1 IC50. (ELISA stands for enzyme-linked immunosorbent assay.)
The test system of the next assay is DLD-1 BRCA2(-/-) cells. In words: Inhibition of proliferation of DLD-1 BRCA2(-/-) cells (CTG method). In kind it is cell-based. The settings on record: Homo sapiens, DLD-1, 168 h; 7 days incubation, CellTiter-Glo. The protocol: • 1. Cell Pretreatment: DLD-1 BRCA2(-/-) cells were cultured in growth medium 1640 + 10% FBS (fetal bovine serum) + 1% Penicillin-Streptomycin. Cells in the logarithmic growth phase were digested with trypsin-EDTA, centrifuged, and resuspended. DLD-1 BRCA2(-/-) cells were seeded at 1,000 cells/well in sterile 96-well opaque plates, 75 µl per well. After seeding, the cell culture plates were incubated overnight at 37 °C with 5% CO2 before adhesion, followed by treatment with the test compounds. • 2. DLD-1 BRCA2(-/-) Cell Drug Treatment: The test compound was prepared as a 10 mM stock solution using DMSO. The test compound was then diluted to a 4× working solution using growth medium (starting at 40 µM, with 9 4-fold dilutions). 25 µl of 4× working solution was added to each well to achieve final concentrations of 10000, 2500, 625, 156, 39, 9.7, 2.4, 0.61, and 0.152 nM, respectively. Blank control wells containing the same DMSO concentration were also included, with three replicates for each concentration. After adding the test compound, the cells were incubated at 37 °C with 5% CO2 for 7 days. • 3. After incubation, 100 µl of CellTiter-Glo® Reagent was added to each well, and […] intensity was measured. A curve was fitted using GraphPad software, and the IC50 value for cell proliferation inhibition was calculated.
On the technique in general: ATP-based viability assays read luminescence as a measure of living cells.

Sequence of PARP1 (P09874 whole entry): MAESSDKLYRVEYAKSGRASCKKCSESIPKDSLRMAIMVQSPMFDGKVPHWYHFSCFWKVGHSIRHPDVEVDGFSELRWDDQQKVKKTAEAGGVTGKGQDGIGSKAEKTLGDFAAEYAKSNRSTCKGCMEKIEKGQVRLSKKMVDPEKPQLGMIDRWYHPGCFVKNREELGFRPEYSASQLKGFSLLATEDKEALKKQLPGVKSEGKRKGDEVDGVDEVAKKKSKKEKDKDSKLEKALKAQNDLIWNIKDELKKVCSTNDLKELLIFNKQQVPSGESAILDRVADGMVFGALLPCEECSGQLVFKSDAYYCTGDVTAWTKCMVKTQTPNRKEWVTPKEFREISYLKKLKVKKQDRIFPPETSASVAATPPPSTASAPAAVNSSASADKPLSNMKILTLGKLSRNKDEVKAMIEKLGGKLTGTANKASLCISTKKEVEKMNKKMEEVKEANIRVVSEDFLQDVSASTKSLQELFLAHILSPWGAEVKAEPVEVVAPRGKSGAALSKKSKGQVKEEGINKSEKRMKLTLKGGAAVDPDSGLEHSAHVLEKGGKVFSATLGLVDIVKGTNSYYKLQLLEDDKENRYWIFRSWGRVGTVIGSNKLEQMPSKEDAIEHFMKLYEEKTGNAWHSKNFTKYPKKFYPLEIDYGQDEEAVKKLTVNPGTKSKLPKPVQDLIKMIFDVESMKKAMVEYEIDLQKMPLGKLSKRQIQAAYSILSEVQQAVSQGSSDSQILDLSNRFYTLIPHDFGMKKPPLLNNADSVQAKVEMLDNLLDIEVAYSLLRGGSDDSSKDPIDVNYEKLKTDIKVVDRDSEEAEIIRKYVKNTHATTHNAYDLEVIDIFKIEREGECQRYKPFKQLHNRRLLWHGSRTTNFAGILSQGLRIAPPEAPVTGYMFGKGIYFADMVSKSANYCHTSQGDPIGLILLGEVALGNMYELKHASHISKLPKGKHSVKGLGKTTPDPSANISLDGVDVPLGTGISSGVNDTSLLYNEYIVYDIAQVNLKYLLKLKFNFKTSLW
Sequence of PARP2 (Q9UGN5 whole entry): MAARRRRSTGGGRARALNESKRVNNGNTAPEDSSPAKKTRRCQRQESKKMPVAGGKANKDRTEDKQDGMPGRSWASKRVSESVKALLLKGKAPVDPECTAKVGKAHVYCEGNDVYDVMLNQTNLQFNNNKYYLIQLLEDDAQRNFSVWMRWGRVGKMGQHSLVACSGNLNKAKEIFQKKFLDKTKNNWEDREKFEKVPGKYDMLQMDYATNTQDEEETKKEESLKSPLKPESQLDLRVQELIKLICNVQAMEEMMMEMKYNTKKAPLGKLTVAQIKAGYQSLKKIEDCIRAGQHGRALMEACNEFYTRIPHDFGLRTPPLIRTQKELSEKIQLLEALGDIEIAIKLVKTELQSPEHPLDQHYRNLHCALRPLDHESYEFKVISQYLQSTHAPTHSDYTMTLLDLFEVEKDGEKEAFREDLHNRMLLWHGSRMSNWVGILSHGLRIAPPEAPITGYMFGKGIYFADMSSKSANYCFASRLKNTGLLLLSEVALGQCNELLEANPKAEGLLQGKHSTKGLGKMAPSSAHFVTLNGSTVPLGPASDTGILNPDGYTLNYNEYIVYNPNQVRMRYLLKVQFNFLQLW
Experimental for PARP2: Experimental Objective: To evaluate the inhibitory effect of the compounds of the present invention on the enzyme activities of PARP1 and PARP2 using ELISA.
• 1. histone-coated 384-well plates was prepared: 25 µL of histone solution was added to each well and incubated overnight at 4 °C. • 2. PBST buffer, blocking buffer (PBS buffer with 5% BSA and 0.05% Tween-20 added) and detection buffer (20 mM HEPES pH 7.5 + 100 mM NaCl + 2 mM DTT + 0.002% Tween-20 + 0.1% BSA) were prepared. • 3. The histone-coated 3 84-well plate was washed three times with PBST buffer, blocked at room temperature with 50 µL blocking buffer for 1 hour, and then washed three times with PBST buffer. • 4. Test compounds were prepared as 2000-fold stock solutions in DMSO. 50 nL of the stock solution was mixed with 19.95 µL detection buffer, and 5 µL of the gradient-diluted test compound was transferred to each well. • 5. Enzymatic reaction (PARP1): PARP1 & DNA mix was pre-incubated at 25 °C for 10 minutes. 10 µL of the PARP1 & DNA mix was added to each well and incubated with the test compound at room temperature for 10 minutes. […] Finally, the 384-well plate was washed three times with PBST buffer. Enzymatic reaction (PARP2): PARP2 was pre-incubated at 25 °C for 10 minutes. 10 µL of PARP2 was added to each well and incubated with the test compound at room temperature for 10 minutes. […] Finally, the 384-well plate was washed three times with PBST buffer. • 6. Detection (PARP1): 20 µL of anti-Poly/Mono-ADP Ribose Rabbit mAb was added and incubated at room temperature for 1.5 hours, followed by three washes of the 384-well plate with PBST buffer. Then, 20 µL of diluted anti-rabbit IgG, HRP-linked Antibody (diluted 1:2000 in blocking buffer) was added and incubated at room temperature for 1 hour. After washing the plate three times with PBST buffer, 25 µL of a 1:1 mixture of Femto-ECL Substrate A and Femto-ECL Substrate B was added. Detection (PARP2): 25 µL of Strep-HRP was added and incubated at room temperature for 1 hour, followed by three washes of the 384-well plate with PBS buffer. Then, 25 µL of a 1:1 mixture of Femto-ECL Substrate A and Femto-ECL Substrate B was added. • 7. Chemiluminescence intensity was measured using an Envision multimode microplate reader. • 8. Data Processing
The inhibition rate was calculated in Excel using formula (1). inh% = (Max−Signal)/(Max−Min)*100 [formula]
The IC50 value was obtained by fitting the data in XL-Fit using formula (2). Y = bottom + (top−bottom)/(1+(IC50/X)*HillSlope); [formula] wherein Y is the inhibition percentage and X is the compound concentration.

On to `CNC(=O)c1ccc(N2CCN(Cc3cc(Oc4ccccc4)c4nc(C)c(=O)[nH]c4c3)CC2)c(F)n1` [Example 4, 6-fluoro-N-methyl-5-(4-((2-methyl-3-oxo-8-phenoxy-3,4-dihydroquinoxalin-6-yl)methyl)piperazin-1-yl)picolinamide], for which the half-maximal inhibitory concentration (IC50) stood at 1780 nM against PARP2, 5.3 nM in the assay with MDA-MB-436 cells, 1.84 nM at PARP1 and 4.7 nM in the assay with DLD-1 BRCA2(-/-) cells. For the same molecule, the “Selectivity PARP2/PARP1” value on PARP1 is on record as 968.5.
The corresponding values for `CNC(=O)c1ccc(N2CCN(Cc3cc(Oc4ccc(F)cc4)c4nc(C)c(=O)[nH]c4c3)CC2)c(F)n1` [Example 6, 6-fluoro-5-(4-((8-(4-fluorophenoxy)-2-methyl-3-oxo-3,4-dihydroquinoxalin-6-yl)methyl)piperazin-1-yl)-N-methylpicolinamide] are 839 nM, 6.8 nM, 1.2 nM, 14.5 nM and 700.1.
With `CNC(=O)c1ccc(N2CCN(Cc3cc(-c4ccc(F)cc4)c4nc(C)c(=O)[nH]c4c3)CC2)c(F)n1` [Example 10, 6-fluoro-5-(4-((8-(4-fluorophenyl)-2-methyl-3-oxo-3,4-dihydroquinoxalin-6-yl)methyl)piperazin-1-yl)-N-methylpicolinamide], the IC50 in the assay on MDA-MB-436 cells was determined as 1.7 nM; in the assay with DLD-1 BRCA2(-/-) cells, 7.5 nM.
The matching figures for `C=Cc1cc(CN2CCN(c3ccc(C(=O)NC)nc3F)CC2)cc2[nH]c(=O)c(C)nc12` [Example 25, 6-fluoro-N-methyl-5-(4-((2-methyl-3-oxo-8-vinyl-3,4-dihydroquinoxalin-6-yl)methyl)piperazin-1-yl)picolinamide]: 3.5 nM and 1.3 nM.
The matching figures for `CC#Cc1cc(CN2CCN(c3ccc(C(=O)NC)nc3C)CC2)cc2[nH]c(=O)c(C)nc12` [Example 38, N,6-dimethyl-5-(4-((2-methyl-3-oxo-8-(prop-1-yn-1-yl)-3,4-dihydroquinoxalin-6-yl)methyl)piperazin-1-yl)picolinamide]: 5 nM and 15.1 nM.
The corresponding values for `CNC(=O)c1ccc(N2CCN(Cc3cc(C#Cc4ccccc4)c4nc(C)c(=O)[nH]c4c3F)CC2)c(F)n1` [Example 53, 6-fluoro-5-(4-((5-fluoro-2-methyl-3-oxo-8-(phenylethynyl)-3,4-dihydroquinoxalin-6-yl)methyl)piperazin-1-yl)-N-methylpicolinamide] are 3940 nM and 963 nM.
As to `CNC(=O)c1ccc(N2CCN(Cc3cc(OC(F)F)c4nc(C(F)F)c(=O)[nH]c4c3)CC2)c(F)n1` [Example 56, 5-(4-((8-(difluoromethoxy)-2-(difluoromethyl)-3-oxo-3,4-dihydroquinoxalin-6-yl)methyl)piperazin-1-yl)-6-fluoro-N-methylpicolinamide], the IC50 in the assay on MDA-MB-436 cells turned out to be 14.7 nM; with DLD-1 BRCA2(-/-) cells, 8.3 nM.
`Cc1nc2c(OC(F)F)cc(CN3CCN(c4ccc(C(=O)NC5CC5)nc4F)CC3)c(F)c2[nH]c1=O` [Example 61, N-cyclopropyl-5-(4-((8-(difluoromethoxy)-5-fluoro-2-methyl-3-oxo-3,4-dihydroquinoxalin-6-yl)methyl)piperazin-1-yl)-6-fluoropicolinamide]: the IC50 in the assay with MDA-MB-436 cells is 20.3 nM; with DLD-1 BRCA2(-/-) cells, 8.59 nM.
The matching figures for `CNC(=O)c1ccc(N2CCN(Cc3cc(-c4ccnn4C)c4nc(C)c(=O)[nH]c4c3)CC2)c(F)n1` [Example 68, 6-fluoro-N-methyl-5-(4-((2-methyl-8-(1-methyl-1H-pyrazol-5-yl)-3-oxo-3,4-dihydroquinoxalin-6-yl)methyl)piperazin-1-yl)picolinamide]: 35.6 nM and 33.3 nM.
The corresponding values for `CNC(=O)c1ccc(N2CCN(Cc3cc(-c4cnn(C)c4)c4nc(C)c(=O)[nH]c4c3)CC2)c(F)n1` [Example 70, 6-fluoro-N-methyl-5-(4-((2-methyl-8-(1-methyl-1H-pyrazol-4-yl)-3-oxo-3,4-dihydroquinoxalin-6-yl)methyl)piperazin-1-yl)picolinamide] are 13.9 nM and 14.2 nM.
